Results taken from patent publication US8263598B2, “Substituted sulfonamide compounds” (Gruenenthal GmbH, priority 2008, dated 2012).

Experiments:
[1] = biological target: T1, B1R receptor of rats (rB1R) (Rattus norvegicus, UniProt P97583); test: FLIPR Ca2+ assay on rat bradykinin 1 receptor (CHO K1 rB1R cells); assay type: cell-based; conditions: test substance 10 μM; CHO K1 cells with B1R gene of rats; agonist Des-Arg9-bradykinin 100 nM; compared to maximum achievable inhibition
T1 construct: host or cells: CHO K1 cells
T1 sequence (P97583 1-337): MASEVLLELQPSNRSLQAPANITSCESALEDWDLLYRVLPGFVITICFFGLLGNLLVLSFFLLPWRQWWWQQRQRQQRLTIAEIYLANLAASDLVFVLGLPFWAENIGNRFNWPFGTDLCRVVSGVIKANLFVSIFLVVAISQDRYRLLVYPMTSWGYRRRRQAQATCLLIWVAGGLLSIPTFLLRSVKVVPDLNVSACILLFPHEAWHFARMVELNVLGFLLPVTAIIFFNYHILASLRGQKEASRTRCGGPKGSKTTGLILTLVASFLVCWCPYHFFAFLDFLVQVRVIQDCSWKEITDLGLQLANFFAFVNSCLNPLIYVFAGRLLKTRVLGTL
Protocol: (§1) The agonistic or antagonistic action of compounds can be quantified on the bradykinin 1 receptor (B1R) of humans and rats with ectopically expressing cell lines (CHO K1 cells) and with the aid of a Ca^2+-sensitive dye (Fluo-4) in the fluorescent imaging plate reader (FLIPR). The figure in percent activation refers to the Ca^2+ signal after addition of Lys-Des-Arg^9-bradykinin (0.5 nM) and Des-Arg^9-bradykinin (100 nM). Antagonists result in a suppression of the Ca^2+ inflow after the addition of the agonist. Percent inhibition values are given in comparison to the maximum achievable inhibition.
(§2) The agonistic or antagonistic action of substances can be determined on the bradykinin 1 receptor (B1R) of humans and rats by means of the following assay.
(§3) According to this assay the Ca^2+ inflow through the channel is quantified by means of a Ca^2+-sensitive dye (Fluo-4 type, Molecular Probes Europe BV, Leiden, Netherlands), in a Fluorescent Imaging Plate Reader (FLIPR, Molecular Devices, Sunnyvale, USA). Method:
(§4) Chinese hamster ovary cells (CHO K1 cells) are used, which are stably transfected with the human B1R gene (hB1R cells, Euroscreen s.a., Gosselies, Belgium), or with the B1R gene of rats (rB1R cells, Axxam, Milan, Italy). For functional investigations these cells are plated out on black 96-well plates with a clear floor (BD Biosciences, Heidelberg, Germany) in a density of 20,000/25,000 cells/well. The cells are incubated overnight with 10 vol. % FBS (foetal bovine serum, Gibco Invitrogen GmbH, Karlsruhe, Germany) at 37° C. and 5% CO2 in a culture medium (hB1R cells: Nutrient Mixture Ham's F12, Gibco Invitrogen GmbH, Karlsruhe, Germany; rB1R cells: D-MEM/F12, Gibco Invitrogen GmbH, Karlsruhe, Germany). The following day the cells are charged for 60 minutes at 37° C. with 2.13 μM Fluo-4 (Molecular Probes Europe BV, Leiden, Netherlands) in HBSS buffer (Hank's buffered saline solution, Gibco Invitrogen GmbH, Karlsruhe, Germany) together with […] (Sigma-Aldrich, Taufkirchen, Germany) and 10 mM HEPES (Sigma-Aldrich, Taufkirchen, Germany).
(§5) The plates are then washed twice with HBSS buffer and HBSS buffer is added which additionally contains 0.1% BSA (bovine serum albumin; Sigma-Aldrich, Taufkirchen, Germany), 5.6 mM glucose and 0.05% gelatin (Merck KGaA, Darmstadt, Germany). After further incubation for 20 minutes at room temperature the plates are used for the Ca^2+ measurement in the FLIPR. The Ca^2+-dependent fluorescence is measured both before and after the addition of substances (λex=488 nm, λem=540 nm). The quantification is carried out by measuring the highest fluorescence intensity (FC, fluorescence counts) over time.
(§6) The FLIPR protocol consists of two substance additions. First of all test substances (10 μM) are pipetted onto the cells and the Ca^2+ inflow is compared with the control (hB1R: Lys-Des-Arg9-bradykinin 0.5 nM; rB1R: Des-Arg9-bradykinin 100 nM). This gives the result in percent activation referred to the Ca^2+ signal after addition of Lys-Des-Arg9-bradykinin (0.5 nM), bzw. Des-Arg9-bradykinin (100 nM). After 10 minutes' incubation 0.5 nM Lys-Des-Arg9-bradykinin (hB1R) and 100 nM Des-Arg^9-bradykinin (rB1R) are applied and the inflow of Ca^2+ is likewise determined. Antagonists lead to a suppression of the Ca^2+ inflow. The percent inhibition compared to the maximum achievable inhibition is calculated. The compounds show a good activity on both human and rat receptors.
(§7) The agonistic and antagonistic action of the compounds according to the invention on the bradykinin 1 receptor (B1R) of humans and rats were determined as described above. Antagonists lead to a suppression of the Ca^2+ inflow. The % inhibition compared to the maximum achievable inhibition was calculated.

[2] = biological target: T2, human B1R receptor (hB1R) (Homo sapiens, UniProt P46663); test: FLIPR Ca2+ assay on human bradykinin 1 receptor (CHO K1 hB1R cells); assay type: cell-based; conditions: test substance 10 μM; CHO K1 cells with human B1R gene; agonist Lys-Des-Arg9-bradykinin 0.5 nM; compared to maximum achievable inhibition
T2 construct: host or cells: CHO K1 cells
T2 sequence (P46663 1-353): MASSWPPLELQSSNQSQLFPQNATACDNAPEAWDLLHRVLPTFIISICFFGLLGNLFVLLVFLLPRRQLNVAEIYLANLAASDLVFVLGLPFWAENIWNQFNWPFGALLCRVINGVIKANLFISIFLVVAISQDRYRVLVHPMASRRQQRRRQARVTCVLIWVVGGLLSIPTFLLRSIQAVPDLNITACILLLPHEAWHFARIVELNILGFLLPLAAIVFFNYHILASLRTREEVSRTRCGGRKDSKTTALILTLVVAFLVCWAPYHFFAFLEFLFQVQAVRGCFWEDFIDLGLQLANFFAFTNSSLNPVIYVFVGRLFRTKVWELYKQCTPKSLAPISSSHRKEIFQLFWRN
Protocol: as §1, §2, §3, §4, §5, §6, §7

| SMILES | inhibition at 10 µM [1] | inhibition at 10 µM [2] |
| --- | --- | --- |
| COc1cc(C)c(S(=O)(=O)N(CCOCC(=O)N2CCn3c(CN4CCCC4)ccc3C2c2ccccc2)CC(C)C)c(C)c1C (centres unmarked) [Example 92, N-isobutyl-4-methoxy-2,3,6-trimethyl-N-(2-(2-oxo-2-(1-phenyl-6-(pyrrolidin-1-ylmethyl)-3,4-dihydropyrrolo[1,2-a]pyrazin-2(1H)-yl)ethoxy)ethyl)benzene-sulfonamide] | 102% | 102% |
| COc1cc(C)c(S(=O)(=O)N(CCOCC(=O)N2CCn3c(CN4CCCC4)ccc3C2c2ccccc2)Cc2ccccc2)c(C)c1 (centres unmarked) [Example 127, N-benzyl-4-methoxy-2,6-dimethyl-N-(2-(2-oxo-2-(1-phenyl-6-(pyrrolidin-1-ylmethyl)-3,4-dihydropyrrolo[1,2-a]pyrazin-2(1H)-yl)ethoxy)ethyl)benzene-sulfonamide] | 102% | 99% |
| COc1c(C)cc(S(=O)(=O)N(C)CCOCC(=O)N2CCn3c(CN4CCOCC4)ccc3C2c2ccccc2)c(C)c1C (centres unmarked) [Example 108, 4-methoxy-N,2,3,5-tetramethyl-N-(2-(2-(6-(morpholinomethyl)-1-phenyl-3,4-dihydropyrrolo[1,2-a]pyrazin-2(1H)-yl)-2-oxoethoxy)ethyl)benzenesulfonamide] | 102% | 102% |
| COc1cc(C)c(S(=O)(=O)N(C)CCOCC(=O)N2CCn3cc(-c4ccncc4)nc3C2)c(C)c1 [Example 175, 4-Methoxy-N,2,6-trimethyl-N-(2-(2-oxo-2-(2-(pyridin-4-yl)-5,6-dihydroimidazo[1,2-a]pyrazin-7(8H)-yl)ethoxy)ethyl)benzenesulfonamide] | 102% | 100% |
| COc1cc(C)c(S(=O)(=O)N(CCOCC(=O)N2CCn3cccc3C2c2cccs2)CC(C)C)c(C)c1C (centres unmarked) [Example 25, N-isobutyl-4-methoxy-2,3,6-trimethyl-N-(2-(2-oxo-2-(1-(thiophen-2-yl)-3,4-dihydropyrrolo[1,2-a]pyrazin-2(1H)-yl)ethoxy)ethyl)benzenesulfonamide] | 98% | 55% |
| COc1cc(C)c(S(=O)(=O)N(C)CCOCC(=O)N2CCn3cccc3C2c2ccc(C)c(C)c2)c(C)c1 (centres unmarked) [Example 58, N-(2-(2-(1-(3,4-dimethylphenyl)-3,4-dihydropyrrolo[1,2-a]pyrazin-2(1H)-yl)-2-oxoethoxy)ethyl)-4-methoxy-N,2,6-trimethylbenzenesulfonamide] | 97% | 102% |
| COc1cc(C)c(S(=O)(=O)N(C)CCOCC(=O)N2CCn3c(CN4CCCCC4)ccc3C2c2ccccc2)c(C)c1 (centres unmarked) [Example 16, 4-methoxy-N,2,6-trimethyl-N-(2-(2-oxo-2-(1-phenyl-6-(piperidin-1-ylmethyl)-3,4-dihydropyrrolo[1,2-a]pyrazin-2(1H)-yl)ethoxy)ethyl)benzenesulfonamide] | 102% | 104% |
| COc1cc(C)c(S(=O)(=O)N(C)CCOCC(=O)N2CCn3c(ccc3-c3ccncc3)C2)c(C)c1 [Example 177, 4-Methoxy-N,2,6-trimethyl-N-(2-(2-oxo-2-(6-(pyridin-4-yl)-3,4-dihydropyrrolo[1,2-a]pyrazin-2(1H)-yl)ethoxy)ethyl)benzenesulfonamide] | 97% | 99% |
| COc1ccc(C2c3cccn3CCN2C(=O)COCCN(C)S(=O)(=O)c2c(C)cc(OC)c(C)c2C)cc1 (centres unmarked) [Example 83, 4-methoxy-N-(2-(2-(1-(4-methoxyphenyl)-3,4-dihydropyrrolo[1,2-a]pyrazin-2(1H)-yl)-2-oxoethoxy)ethyl)-N,2,3,6-tetramethylbenzenesulfonamide] | 100% | 101% |
| COc1c(C)cc(S(=O)(=O)N(C)CCOCC(=O)N2CCn3cccc3C2c2cccs2)c(C)c1C (centres unmarked) [Example 36, 4-methoxy-N,2,3,5-tetramethyl-N-(2-(2-oxo-2-(1-(thiophen-2-yl)-3,4-dihydropyrrolo[1,2-a]pyrazin-2(1H)-yl)ethoxy)ethyl)benzenesulfonamide] | 85% | 97% |
| COc1cc(C)c(S(=O)(=O)N(C)CCOCC(=O)N2CCn3c(CN(C)C)ccc3C2c2ccccc2)c(C)c1 (centres unmarked) [Example 14, N-(2-(2-(6-((dimethylamino)methyl)-1-phenyl-3,4-dihydropyrrolo[1,2-a]pyrazin-2(1H)-yl)-2-oxoethoxy)ethyl)-4-methoxy-N,2,6-trimethylbenzenesulfonamide] | 100% | 103% |
| COc1cc(C)c(S(=O)(=O)N(C)CCOCC(=O)N2CCn3cccc3C2c2cccnc2)c(C)c1 (centres unmarked) [Example 54, 4-methoxy-N,2,6-trimethyl-N-(2-(2-oxo-2-(1-(pyridin-3-yl)-3,4-dihydropyrrolo[1,2-a]pyrazin-2(1H)-yl)ethoxy)ethyl)benzenesulfonamide] | 93% | 98% |
| COc1cc(C)c(S(=O)(=O)N(C)CCOCC(=O)N2CCn3cc(CN4CCCCC4)nc3C2)c(C)c1 [Example 2, 4-methoxy-N,2,6-trimethyl-N-(2-(2-oxo-2-(2-(piperidin-1-ylmethyl)-5,6-dihydroimidazo[1,2-a]pyrazin-7(8H)-yl)ethoxy)ethyl)benzenesulfonamide] | 104% | 106% |
| COc1cc(C)c(S(=O)(=O)N(CCOCC(=O)N2CCn3cccc3C2C(C)C)Cc2ccccc2)c(C)c1C (centres unmarked) [Example 124, N-benzyl-N-(2-(2-(1-isopropyl-3,4-dihydropyrrolo[1,2-a]pyrazin-2(1H)-yl)-2-oxoethoxy)ethyl)-4-methoxy-2,3,6-trimethylbenzenesulfonamide] | 96% | 58% |
| O=C(CC(NS(=O)(=O)c1ccc2ccccc2c1)c1ccccc1)N1CCn2c(ccc2-c2cccnc2)C1 (centres unmarked) [Example 167, N-(3-Oxo-1-phenyl-3-(6-(pyridin-3-yl)-3,4-dihydropyrrolo[1,2-a]pyrazin-2(1H)-yl)propyl)naphthalene-2-sulfonamide] | 70% | 32% |
| COc1cc(C)c(S(=O)(=O)N(C)CCOCC(=O)N2CCn3cccc3C2C(C)C)c(C)c1 (centres unmarked) [Example 137, N-(2-(2-(1-isopropyl-3,4-dihydropyrrolo[1,2-a]pyrazin-2(1H)-yl)-2-oxoethoxy)ethyl)-4-methoxy-N,2,6-trimethylbenzenesulfonamide] | 102% | 104% |
